Reference: article PMC5218480 (PLoS ONE, 2017)

Test system: MV-4-11 cells
Experiment: Gene expression microarray analysis (Affymetrix PrimeView) and GSEA
Type: cell-based, human
Design: RFU PODN (11730768_x_at) / Fold change /veh PODN (11730768_x_at) / RFU LINC00158 (11744669_a_at) / Fold change /veh LINC00158 (11744669_a_at) / RFU DUSP10 (11751237_a_at) / Fold change /veh DUSP10 (11751237_a_at) / RFU ID3 (11757404_x_at) / Fold change /veh ID3 (11757404_x_at) / RFU PLEKHG5 (11737974_s_at) / Fold change /veh PLEKHG5 (11737974_s_at) / RFU LRRC4B (11730491_at) / Fold change /veh LRRC4B (11730491_at) / RFU GIMAP4 (11747438_a_at) / Fold change /veh GIMAP4 (11747438_a_at) / RFU KRT8 (11758183_x_at) / Fold change /veh KRT8 (11758183_x_at) / RFU CNN1 (11734310_a_at) / Fold change /veh CNN1 (11734310_a_at) / RFU VPS37D (11726825_at) / Fold change /veh VPS37D (11726825_at) / RFU C10orf10 (11716522_x_at) / Fold change /veh C10orf10 (11716522_x_at) / RFU KIR2DL2 /// KIR2DL4 /// KIR2DL5A /// KIR2DL5B /// KIR2DS1 /// KIR2DS2 /// KIR2DS3 /// KIR2DS4 /// KIR3DL3 /// KIR3DL3 /// KIR3DS1 (11738374_at) / Fold change /veh KIR2DL2 /// KIR2DL4 /// KIR2DL5A /// KIR2DL5B /// KIR2DS1 /// KIR2DS2 /// KIR2DS3 /// KIR2DS4 /// KIR3DL3 /// KIR3DL3 /// KIR3DS1 (11738374_at) / RFU C1QL1 (11718748_at) / Fold change /veh C1QL1 (11718748_at) / RFU TMPRSS4 (11747572_a_at) / Fold change /veh TMPRSS4 (11747572_a_at) / RFU HAMP (11756126_x_at) / Fold change /veh HAMP (11756126_x_at) / RFU RNFT2 (11725882_a_at) / Fold change /veh RNFT2 (11725882_a_at) / RFU NR4A2 (11747474_a_at) / Fold change /veh NR4A2 (11747474_a_at) / RFU ABCC12 (11746883_a_at) / Fold change /veh ABCC12 (11746883_a_at) / RFU TMEM136 (11760407_x_at) / Fold change /veh TMEM136 (11760407_x_at) / RFU CLDN22 /// WWC2 (11732394_at) / Fold change /veh CLDN22 /// WWC2 (11732394_at) / RFU HLA-DPB1 (11760878_x_at) / Fold change /veh HLA-DPB1 (11760878_x_at) / RFU SPINT1 (11716480_a_at) / Fold change /veh SPINT1 (11716480_a_at) / RFU GAP43 (11754022_s_at) / Fold change /veh GAP43 (11754022_s_at) / RFU A4GNT (11735810_at) / Fold change /veh A4GNT (11735810_at) / RFU PRB3 (11715151_x_at) / Fold change /veh PRB3 (11715151_x_at) / RFU TUBB4B (11761932_at) / Fold change /veh TUBB4B (11761932_at) / RFU CAPN14 (11732068_a_at) / Fold change /veh CAPN14 (11732068_a_at) / RFU TMCC2 (11721928_a_at) / Fold change /veh TMCC2 (11721928_a_at) / RFU IRGQ (11745062_a_at) / Fold change /veh IRGQ (11745062_a_at) / RFU FAM174B (11720279_a_at) / Fold change /veh FAM174B (11720279_a_at) / RFU TMPRSS4 (11748680_a_at) / Fold change /veh TMPRSS4 (11748680_a_at) / RFU FAM212B (11763350_a_at) / Fold change /veh FAM212B (11763350_a_at) / RFU PLEKHG5 (11743358_a_at) / Fold change /veh PLEKHG5 (11743358_a_at) / RFU ZSCAN30 (11745921_a_at) / Fold change /veh ZSCAN30 (11745921_a_at) / RFU CMKLR1 (11741424_a_at) / Fold change /veh CMKLR1 (11741424_a_at) / RFU LOC101060620 /// MAPK8IP1 (11723275_at) / Fold change /veh LOC101060620 /// MAPK8IP1 (11723275_at) / RFU SPTSSB (11747773_x_at) / Fold change /veh SPTSSB (11747773_x_at) / RFU PRSS12 (11739890_at) / Fold change /veh PRSS12 (11739890_at) / RFU BIN1 (11741810_x_at) / Fold change /veh BIN1 (11741810_x_at) / RFU WNT11 (11732464_a_at) / Fold change /veh WNT11 (11732464_a_at) / RFU C10orf10 (11716521_a_at) / Fold change /veh C10orf10 (11716521_a_at) / RFU C5orf56 (11738089_at) / Fold change /veh C5orf56 (11738089_at) / RFU CYB561 (11721691_x_at) / Fold change /veh CYB561 (11721691_x_at) / RFU ANKRD19P (11752326_a_at) / Fold change /veh ANKRD19P (11752326_a_at) / RFU OR2T12 /// OR2T33 /// OR2T8 (11738714_s_at) / Fold change /veh OR2T12 /// OR2T33 /// OR2T8 (11738714_s_at) / RFU VCAN (11748164_a_at) / Fold change /veh VCAN (11748164_a_at) / RFU JSRP1 (11732532_at) / Fold change /veh JSRP1 (11732532_at) / RFU KRTAP10-11 (11738290_x_at) / Fold change /veh KRTAP10-11 (11738290_x_at) / RFU MYO3A (11730013_a_at) / Fold change /veh MYO3A (11730013_a_at) / RFU EBF3 (11725865_a_at) / Fold change /veh EBF3 (11725865_a_at) / RFU CAMK2N1 (11719241_x_at) / Fold change /veh CAMK2N1 (11719241_x_at) / RFU C5orf56 (11738088_a_at) / Fold change /veh C5orf56 (11738088_a_at) / RFU OLFML3 (11715873_a_at) / Fold change /veh OLFML3 (11715873_a_at) / RFU LOC100653217 /// NTM (11731650_a_at) / Fold change /veh LOC100653217 /// NTM (11731650_a_at) / RFU MAPK11 (11762145_a_at) / Fold change /veh MAPK11 (11762145_a_at) / RFU FIZ1 (11724087_x_at) / Fold change /veh FIZ1 (11724087_x_at) / RFU OASL (11726364_x_at) / Fold change /veh OASL (11726364_x_at) / RFU SOX15 (11748057_x_at) / Fold change /veh SOX15 (11748057_x_at) / RFU CD79A (11719716_a_at) / Fold change /veh CD79A (11719716_a_at) / RFU HIST1H1D (11736915_at) / Fold change /veh HIST1H1D (11736915_at) / RFU CASKIN2 (11723855_a_at) / Fold change /veh CASKIN2 (11723855_a_at) / RFU LOC730098 (11760151_x_at) / Fold change /veh LOC730098 (11760151_x_at) / RFU OR4N2 (11742367_at) / Fold change /veh OR4N2 (11742367_at) / RFU PRRT2 (11749266_a_at) / Fold change /veh PRRT2 (11749266_a_at) / RFU SNX32 (11753110_a_at) / Fold change /veh SNX32 (11753110_a_at) / RFU CDHR5 (11726645_a_at) / Fold change /veh CDHR5 (11726645_a_at) / RFU RCAN1 (11760418_a_at) / Fold change /veh RCAN1 (11760418_a_at) / RFU FAM167A (11723789_a_at) / Fold change /veh FAM167A (11723789_a_at) / RFU FAM26E (11764081_at) / Fold change /veh FAM26E (11764081_at) / RFU ISYNA1 (11749810_s_at) / Fold change /veh ISYNA1 (11749810_s_at) / RFU ACY1 (11761880_at) / Fold change /veh ACY1 (11761880_at) / RFU 11764098_at / Fold change /veh 11764098_at / RFU SAMD14 (11745864_x_at) / Fold change /veh SAMD14 (11745864_x_at) / RFU NPB (11741838_a_at) / Fold change /veh NPB (11741838_a_at) / RFU TMPRSS6 (11731388_a_at) / Fold change /veh TMPRSS6 (11731388_a_at) / RFU KRTAP10-2 (11738614_at) / Fold change /veh KRTAP10-2 (11738614_at) / RFU ARHGAP8 /// PRR5-ARHGAP8 (11727945_x_at) / Fold change /veh ARHGAP8 /// PRR5-ARHGAP8 (11727945_x_at) / RFU KRTAP5-7 /// NADSYN1 (11734609_at) / Fold change /veh KRTAP5-7 /// NADSYN1 (11734609_at) / RFU RASL12 (11751679_a_at) / Fold change /veh RASL12 (11751679_a_at) / RFU CDKN2B (11736163_a_at) / Fold change /veh CDKN2B (11736163_a_at) / RFU PRF1 (11729649_at) / Fold change /veh PRF1 (11729649_at) / RFU, ZNF638 /// ZNF638-IT1 / Fold change vs veh, ZNF638 /// ZNF638-IT1 / RFU, PANK3 / Fold change vs veh, PANK3 / RFU, SH3YL1 / Fold change vs veh, SH3YL1 / RFU, ZEB2 / Fold change vs veh, ZEB2 / RFU, NRIP1 / Fold change vs veh, NRIP1 / RFU, PTTG1IP / Fold change vs veh, PTTG1IP / RFU, CAPN2 / Fold change vs veh, CAPN2 / RFU, MED14 / Fold change vs veh, MED14 / RFU, SNORA58 / Fold change vs veh, SNORA58 / RFU, C1orf63 / Fold change vs veh, C1orf63 / RFU, LRRFIP1 / Fold change vs veh, LRRFIP1 / RFU, NDUFAF7 / Fold change vs veh, NDUFAF7 / RFU, SLC12A2 / Fold change vs veh, SLC12A2 / RFU, IBTK / Fold change vs veh, IBTK / RFU, ESF1 / Fold change vs veh, ESF1 / Fold change vs veh, TMEM50B / RFU, TAOK1 / Fold change vs veh, TAOK1 / RFU, ACBD3 / Fold change vs veh, ACBD3 / RFU, TMA16 / Fold change vs veh, TMA16 / RFU, RWDD3 / Fold change vs veh, RWDD3 / RFU, BCAT1 / Fold change vs veh, BCAT1 / RFU, EDEM3 / Fold change vs veh, EDEM3 / RFU, TMEM33 / Fold change vs veh, TMEM33 / RFU, WDR75 / Fold change vs veh, WDR75 / RFU, AHCTF1 / Fold change vs veh, AHCTF1 / RFU, TFRC / Fold change vs veh, TFRC / RFU, ZDHHC17 / Fold change vs veh, ZDHHC17 / RFU, NOM1 / Fold change vs veh, NOM1 / RFU, ARL8B / Fold change vs veh, ARL8B / RFU, ZBTB11 / Fold change vs veh, ZBTB11 / RFU, TAMM41 / Fold change vs veh, TAMM41 / RFU, KIAA1704 /// LOC100996395 / Fold change vs veh, KIAA1704 /// LOC100996395 / RFU, ING1 / Fold change vs veh, ING1 / RFU, TRMT61B / Fold change vs veh, TRMT61B / RFU, FUBP3 / Fold change vs veh, FUBP3 / RFU, TP53 / Fold change vs veh, TP53 / RFU, TNKS2 / Fold change vs veh, TNKS2 / RFU, ZFP14 / Fold change vs veh, ZFP14 / RFU, ACTR2 / Fold change vs veh, ACTR2 / RFU, PPP3R1 / Fold change vs veh, PPP3R1 / RFU, PIK3R1 / Fold change vs veh, PIK3R1 / RFU, HNRNPA1 / Fold change vs veh, HNRNPA1 / RFU, RNF170 / Fold change vs veh, RNF170 / RFU, ZNF28 / Fold change vs veh, ZNF28 / RFU, RNGTT / Fold change vs veh, RNGTT / RFU, OGT / Fold change vs veh, OGT / RFU, BRD1 / Fold change vs veh, BRD1 / RFU, MARS / Fold change vs veh, MARS / RFU, ZNF655 / Fold change vs veh, ZNF655 / RFU, FAHD1 / Fold change vs veh, FAHD1 / RFU, BDP1 / Fold change vs veh, BDP1 / RFU, LRRCC1 / Fold change vs veh, LRRCC1 / RFU, ARID1A / Fold change vs veh, ARID1A / RFU, ZNF146 / Fold change vs veh, ZNF146 / RFU, ZNF330 / Fold change vs veh, ZNF330 / RFU, GPN3 / Fold change vs veh, GPN3 / RFU, C9orf123 / Fold change vs veh, C9orf123 / RFU, N4BP2L2 / Fold change vs veh, N4BP2L2 / RFU, ARFIP1 / Fold change vs veh, ARFIP1 / RFU, FAM179B / Fold change vs veh, FAM179B / RFU, BCL10 / Fold change vs veh, BCL10 / RFU, UHRF1BP1L / Fold change vs veh, UHRF1BP1L / RFU, BET1 / Fold change vs veh, BET1 / RFU, CNOT2 / Fold change vs veh, CNOT2 / RFU, ZNF268 / Fold change vs veh, ZNF268 / Fold change vs veh, ZNF507 / RFU, DGCR2 / Fold change vs veh, DGCR2 / RFU, WDSUB1 / Fold change vs veh, WDSUB1 / Fold change vs veh, HSP90B1 /// MIR3652 / RFU, ADSS / Fold change vs veh, ADSS / RFU, GK / Fold change vs veh, GK / RFU, ZNF148 / Fold change vs veh, ZNF148 / RFU, TAF9 / Fold change vs veh, TAF9 / RFU, SLC1A5 / Fold change vs veh, SLC1A5 / RFU, SLMO2 / Fold change vs veh, SLMO2 / RFU, ABCC4 / Fold change vs veh, ABCC4 / RFU, LOC101060439 /// RAP1B / Fold change vs veh, LOC101060439 /// RAP1B / RFU, RFX7 / Fold change vs veh, RFX7 / RFU, GTPBP10 / Fold change vs veh, GTPBP10 / RFU, CNEP1R1 / Fold change vs veh, CNEP1R1 / RFU, BIVM-ERCC5 /// ERCC5 / Fold change vs veh, BIVM-ERCC5 /// ERCC5 / RFU, ILF3 / Fold change vs veh, ILF3 / RFU 11762660_at / Fold change /veh 11762660_at / RFU VCAN (11757783_s_at) / Fold change /veh VCAN (11757783_s_at) / RFU DDX43 (11728927_at) / Fold change /veh DDX43 (11728927_at) / RFU KRT8 (11758188_x_at) / Fold change /veh KRT8 (11758188_x_at) / RFU NKD1 (11759106_at) / Fold change /veh NKD1 (11759106_at) / RFU SRD5A1 (11742802_a_at) / Fold change /veh SRD5A1 (11742802_a_at) / RFU TPSAB1 /// TPSB2 (11721975_s_at) / Fold change /veh TPSAB1 /// TPSB2 (11721975_s_at) / RFU GSTM3 (11746129_a_at) / Fold change /veh GSTM3 (11746129_a_at) / RFU IL23R (11737362_x_at) / Fold change /veh IL23R (11737362_x_at) / RFU TMEM51 (11727254_a_at) / Fold change /veh TMEM51 (11727254_a_at) / RFU PIWIL2 (11732686_x_at) / Fold change /veh PIWIL2 (11732686_x_at) / RFU ORM1 (11744905_x_at) / Fold change /veh ORM1 (11744905_x_at) / RFU CCDC152 (11743942_at) / Fold change /veh CCDC152 (11743942_at) / RFU ECM1 (11717891_a_at) / Fold change /veh ECM1 (11717891_a_at) / RFU IL23R (11748794_a_at) / Fold change /veh IL23R (11748794_a_at) / RFU TNFAIP8L3 (11732012_x_at) / Fold change /veh TNFAIP8L3 (11732012_x_at) / RFU MBOAT4 (11741988_at) / Fold change /veh MBOAT4 (11741988_at) / RFU 11764193_at / Fold change /veh 11764193_at / RFU TMEM53 (11763286_at) / Fold change /veh TMEM53 (11763286_at) / RFU MAGEB2 (11727129_at) / Fold change /veh MAGEB2 (11727129_at) / RFU TMEM200A (11744735_a_at) / Fold change /veh TMEM200A (11744735_a_at) / RFU CCDC152 (11751479_a_at) / Fold change /veh CCDC152 (11751479_a_at) / RFU FAM211A (11726209_a_at) / Fold change /veh FAM211A (11726209_a_at) / RFU RGS16 (11746705_a_at) / Fold change /veh RGS16 (11746705_a_at) / RFU VCAN (11755009_s_at) / Fold change /veh VCAN (11755009_s_at) / RFU RHOB (11743442_s_at) / Fold change /veh RHOB (11743442_s_at) / RFU RGS16 (11720943_a_at) / Fold change /veh RGS16 (11720943_a_at) / RFU RGS16 (11720944_at) / Fold change /veh RGS16 (11720944_at) / RFU, VPS4B / Fold change vs veh, VPS4B / RFU, CREB1 / Fold change vs veh, CREB1 / RFU, DNAJC13 / Fold change vs veh, DNAJC13 / RFU, GNAQ / Fold change vs veh, GNAQ / RFU, CDK5R1 / Fold change vs veh, CDK5R1 / RFU, ZRANB3 / Fold change vs veh, ZRANB3 / RFU, CUL4A / Fold change vs veh, CUL4A / RFU, CCNY / Fold change vs veh, CCNY / RFU, UFL1 / Fold change vs veh, UFL1 / RFU, COG3 / Fold change vs veh, COG3 / RFU, DIAPH2 / Fold change vs veh, DIAPH2 / RFU, SKA2 / Fold change vs veh, SKA2 / RFU, AFF3 / Fold change vs veh, AFF3 / RFU, LMF1 / Fold change vs veh, LMF1 / RFU, IPO11 / Fold change vs veh, IPO11 / RFU, DFFB / Fold change vs veh, DFFB / RFU, FOXP1 / Fold change vs veh, FOXP1 / RFU, CARD8 / Fold change vs veh, CARD8 / RFU, STRN3 / Fold change vs veh, STRN3 / RFU, ADK / Fold change vs veh, ADK / RFU, RASSF2 / Fold change vs veh, RASSF2 / RFU, WIPF1 / Fold change vs veh, WIPF1 / RFU, LARP1B / Fold change vs veh, LARP1B / RFU, RASA1 / Fold change vs veh, RASA1 / RFU, RB1 / Fold change vs veh, RB1 / RFU, PPFIA1 / Fold change vs veh, PPFIA1 / RFU, MAT2A / Fold change vs veh, MAT2A / RFU, CCT5 / Fold change vs veh, CCT5 / RFU, WDR92 / Fold change vs veh, WDR92 / RFU, CUX1 / Fold change vs veh, CUX1 / RFU, TTC7A / Fold change vs veh, TTC7A / RFU, TMEM135 / Fold change vs veh, TMEM135 / RFU, DEPTOR / Fold change vs veh, DEPTOR / RFU, CPM / Fold change vs veh, CPM / RFU, DNAJB6 / Fold change vs veh, DNAJB6 / RFU, CACNA2D3 / Fold change vs veh, CACNA2D3 / RFU, DTX4 / Fold change vs veh, DTX4 / RFU, TFCP2 / Fold change vs veh, TFCP2 / RFU, GMCL1 /// GMCL1P1 / Fold change vs veh, GMCL1 /// GMCL1P1 / RFU, AEBP2 / Fold change vs veh, AEBP2 / RFU, SNHG1 /// SNORD22 /// SNORD25 /// SNORD26 /// SNORD27 /// SNORD28 /// SNORD29 /// SNORD31 / Fold change vs veh, SNHG1 /// SNORD22 /// SNORD25 /// SNORD26 /// SNORD27 /// SNORD28 /// SNORD29 /// SNORD31 / Fold change (Aza/veh), C12orf56 (ProbeSet 11735607_a_at) / Fold change (ACY-1035/veh), C12orf56 (ProbeSet 11735607_a_at) / Fold change (Aza/veh), FGFR1OP (ProbeSet 11751329_s_at) / Fold change (ACY-1035/veh), FGFR1OP (ProbeSet 11751329_s_at) / Fold change (Aza/veh), VPS36 (ProbeSet 11739960_a_at) / Fold change (ACY-1035/veh), VPS36 (ProbeSet 11739960_a_at) / RFU SYPL1 (11715823_x_at) / Fold change /veh SYPL1 (11715823_x_at) / RFU IGFBP7 (11715501_s_at) / Fold change /veh IGFBP7 (11715501_s_at) / RFU REEP3 (11722064_at) / Fold change /veh REEP3 (11722064_at) / RFU IGLL1 (11728026_x_at) / Fold change /veh IGLL1 (11728026_x_at): dose or concentration left out as unconfirmed
Conditions: ProbeSet 11716931_at; LIST B

Nc1ncn([C@@H]2O[C@H](CO)[C@@H](O)[C@H]2O)c(=O)n1 [azacitidine]
RFU, DGCR2: 177.81 RFU
